BigSolDB 2.1

Nc1cccnn1
Settings	solubility (mole fraction)
in acetone, 288.25 K	0.0068
in acetone, 293.15 K	0.00801
in acetone, 298.35 K	0.00907
in acetone, 303.05 K	0.0102
in acetone, 308.35 K	0.012
in acetone, 313.25 K	0.0133
in acetone, 317.85 K	0.0148
in acetone, 323.35 K	0.0169
in acetone, 328.05 K	0.0187
in aniline, 288.05 K	0.0231
in aniline, 293.25 K	0.0289
in aniline, 298.35 K	0.0347
in aniline, 302.95 K	0.0419
in aniline, 308.45 K	0.0487
in aniline, 313.15 K	0.0559
in aniline, 318.15 K	0.0623
in aniline, 323.45 K	0.0693
in aniline, 328.15 K	0.076
in aniline, 333.35 K	0.0825
in ethanol, 288.35 K	0.0193
in ethanol, 294.05 K	0.0213
in ethanol, 298.75 K	0.0237
in ethanol, 303.15 K	0.0266
in ethanol, 308.25 K	0.0306
in ethanol, 313.35 K	0.0349
in ethanol, 318.35 K	0.0409
in ethanol, 323.35 K	0.0492
in ethanol, 328.35 K	0.0602
in ethanol, 333.15 K	0.0713
in ethyl acetate, 288.45 K	0.00228
in ethyl acetate, 293.15 K	0.00275
in ethyl acetate, 298.65 K	0.00324
in ethyl acetate, 302.75 K	0.00383
in ethyl acetate, 307.15 K	0.00434
in ethyl acetate, 312.95 K	0.00522
in ethyl acetate, 318.65 K	0.00588
in ethyl acetate, 322.65 K	0.00665
in ethyl acetate, 328.25 K	0.00738
in ethyl acetate, 332.35 K	0.00813
in isopropanol, 288.15 K	0.0122
in isopropanol, 298.15 K	0.0172
in isopropanol, 303.55 K	0.0203
in isopropanol, 308.45 K	0.0233
in isopropanol, 312.85 K	0.0277
in isopropanol, 317.75 K	0.0315
in isopropanol, 323.25 K	0.0373
in isopropanol, 328.05 K	0.0412
in isopropanol, 332.95 K	0.0465
in methanol, 288.15 K	0.0356
in methanol, 293.05 K	0.0398
in methanol, 298.15 K	0.0455
in methanol, 303.25 K	0.052
in methanol, 308.15 K	0.0596
in methanol, 313.15 K	0.0675
in methanol, 318.25 K	0.076
in methanol, 323.55 K	0.0865
in methanol, 328.15 K	0.0981
in n-butanol, 289.35 K	0.0105
in n-butanol, 293.35 K	0.0126
in n-butanol, 298.05 K	0.017
in n-butanol, 303.15 K	0.0218
in n-butanol, 308.15 K	0.0267
in n-butanol, 313.15 K	0.0324
in n-butanol, 318.05 K	0.0371
in n-butanol, 322.65 K	0.042
in n-butanol, 327.95 K	0.0469
in n-butanol, 332.95 K	0.0519
in n-propanol, 288.45 K	0.0161
in n-propanol, 293.05 K	0.0185
in n-propanol, 298.35 K	0.022
in n-propanol, 302.85 K	0.0255
in n-propanol, 308.15 K	0.0293
in n-propanol, 313.05 K	0.0351
in n-propanol, 318.35 K	0.0401
in n-propanol, 322.95 K	0.0461
in n-propanol, 327.95 K	0.0519
in n-propanol, 333.15 K	0.0602
